{"source": "patent US8420119B2", "about": "“Drug composition for treating tumor with polymeric micelle encapsulating anti-neoplastic” (Industrial Technology Research Institute, priority 2009, dated 2013)", "key": {"[1]": {"system": "Human colon cancer HT29 cells", "experiment": "In vivo pharmaceutical efficiency comparison of CCP201 with free CPT11, HT29 tumor", "set-up": "species or system immunodeficiency mice", "procedure": "(§1) Human colon cancer HT29 cells were implanted subcutaneously at the dorsal muscles of immunodeficiency mice. […] The administration frequency was twice a week and five times in total. The tumor size and weight of each mouse was monitored. The tumor size was measured and calculated according to the formula V=½ ab^2, wherein V is the volume of the tumor, a is the longest diameter of the tumor, and b is the shortest diameter of the tumor."}, "[2]": {"system": "Human colon cancer HT29 cells", "experiment": "In vivo pharmaceutical efficiency comparison of SCP201 with free CPT11, HT29 tumor", "set-up": "species or system immunodeficiency mice", "procedure": "as §1, with “the formula V=1/2 ab^2, wherein” for “the formula V=½ ab^2, wherein”, “volume of tumor, a” for “volume of the tumor, a”, “the tumor. Human colon cancer Colo205 cells were also tested by the same method described above, except that the mice were divided into 6 groups.” for “the tumor.”"}, "[3]": {"system": "Human colon cancer Colo205 cells", "experiment": "In vivo pharmaceutical efficiency comparison of SCP201 with free CPT11, Colo205 tumor", "set-up": "species or system immunodeficiency mice", "procedure": "as §1, with “the formula V=1/2 ab^2, wherein” for “the formula V=½ ab^2, wherein”, “volume of tumor, a” for “volume of the tumor, a”, “the tumor. Human colon cancer Colo205 cells were also tested by the same method described above, except that the mice were divided into 6 groups.” for “the tumor.”"}, "A549": {"system": "A549", "experiment": "MTT assay A549", "format": "cell-based, human", "settings": "Lung, A549, 72 hours", "procedure": "(§2) Various human cancer lines, such as A549, AS2, and H460, were implanted onto multi-well plates and Dulbecco's Modified Eagle Media (high glucose) with 10% of fetal bovine serum and 1% of P/S being added to each well. […] Then a 20 μL of 0.5 mg/ml MTT (3-(4,5-dimethylthiazol-2-yl)-2,5-diphenyltetrazolium bromide) solution was added to each well to start the reaction. After 2 hours, the suspension of each well was removed and DMSO was added into the well to dissolve formazan, which was formed during the reaction. The living cell concentration was then obtained by analyzing the OD570 and OD600 data of each well."}, "AS2": {"system": "AS2", "experiment": "MTT assay AS2", "format": "cell-based, human", "settings": "Lung, AS2, 72 hours", "procedure": "as §2"}, "H460": {"system": "H460", "experiment": "MTT assay H460", "format": "cell-based, human", "settings": "Lung, H460, 72 hours", "procedure": "as §2"}, "HT29": {"system": "HT29", "experiment": "MTT assay HT29", "format": "cell-based, human", "settings": "Colorectal, HT29, 72 hours", "procedure": "as §2"}, "Colo 205": {"system": "Colo 205", "experiment": "MTT assay Colo 205", "format": "cell-based, human", "settings": "Colorectal, Colo 205, 72 hours", "procedure": "as §2"}, "OVCAR-3": {"system": "OVCAR-3", "experiment": "MTT assay OVCAR-3", "format": "cell-based, human", "settings": "Ovarian, OVCAR-3, 72 hours", "procedure": "as §2"}, "RPMI2650": {"system": "RPMI2650", "experiment": "MTT assay RPMI2650", "format": "cell-based, human", "settings": "Nasalseptum, RPMI2650, 72 hours", "procedure": "as §2"}, "SCC-25": {"system": "SCC-25", "experiment": "MTT assay SCC-25", "format": "cell-based, human", "settings": "Tongue, SCC-25, 72 hours", "procedure": "as §2"}, "[4]": {"settings": "dose 10 mg/kg, total dose 50 mg/kg"}, "[5]": {"settings": "dose 40 mg/kg, total dose 200 mg/kg"}}}
{"smiles": "CCc1c2c(nc3ccc(OC(=O)N4CCC(N5CCCCC5)CC4)cc13)-c1cc3c(c(=O)n1C2)COC(=O)[C@]3(O)CC", "note": "[CPT11, 7-ethyl-10-[4-(1-piperidino)-1-piperidono]carbonyloxy camptothecin]", "values": [{"measurement": "Tumor Size (mm^3) Vol.", "setting": "[1]; day 0, 10 mg/kg", "value": 469.6, "unit": "mm^3"}, {"measurement": "Tumor Size (mm^3) Vol.", "setting": "[1]; day 4, 10 mg/kg", "value": 745.8, "unit": "mm^3"}, {"measurement": "Tumor Size (mm^3) Vol.", "setting": "[1]; day 8, 10 mg/kg", "value": 723.4, "unit": "mm^3"}, {"measurement": "Tumor Size (mm^3) Vol.", "setting": "[1]; day 11, 10 mg/kg", "value": 740.8, "unit": "mm^3"}, {"measurement": "Tumor Size (mm^3) Vol.", "setting": "[1]; day 13, 10 mg/kg", "value": 786.0, "unit": "mm^3"}, {"measurement": "Tumor Size (mm^3) Vol.", "setting": "[1]; day 15, 10 mg/kg", "value": 757.5, "unit": "mm^3"}, {"measurement": "Tumor Size (mm^3) Vol.", "setting": "[1]; day 18, 10 mg/kg", "value": 879.8, "unit": "mm^3"}, {"measurement": "Tumor Size (mm^3) Vol.", "setting": "[1]; day 20, 10 mg/kg", "value": 902.7, "unit": "mm^3"}, {"measurement": "Tumor Size (mm^3) Vol.", "setting": "[1]; day 22, 10 mg/kg", "value": 927.3, "unit": "mm^3"}, {"measurement": "Tumor Size (mm^3) Vol.", "setting": "[1]; day 27, 10 mg/kg", "value": 1217.6, "unit": "mm^3"}, {"measurement": "Maximum weight loss", "setting": "[1]; [4]", "value": 27, "unit": "days"}, {"measurement": "Maximum weight loss %", "setting": "[1]; [4]", "value": 17.3, "unit": "%"}, {"measurement": "TIR % (day 21)", "setting": "[1]; [4]", "value": 35, "unit": "%"}, {"measurement": "Tumor Size (mm^3) Vol.", "setting": "[2]; day 0, 10 mg/kg", "value": 142.8, "unit": "mm^3"}, {"measurement": "Tumor Size (mm^3) Vol.", "setting": "[2]; day 3, 10 mg/kg", "value": 227.8, "unit": "mm^3"}, {"measurement": "Tumor Size (mm^3) Vol.", "setting": "[2]; day 6, 10 mg/kg", "value": 292.7, "unit": "mm^3"}, {"measurement": "Tumor Size (mm^3) Vol.", "setting": "[2]; day 9, 10 mg/kg", "value": 384.2, "unit": "mm^3"}, {"measurement": "Tumor Size (mm^3) Vol.", "setting": "[2]; day 12, 10 mg/kg", "value": 492.0, "unit": "mm^3"}, {"measurement": "Tumor Size (mm^3) Vol.", "setting": "[2]; day 15, 10 mg/kg", "value": 666.0, "unit": "mm^3"}, {"measurement": "Tumor Size (mm^3) Vol.", "setting": "[2]; day 18, 10 mg/kg", "value": 853.5, "unit": "mm^3"}, {"measurement": "Tumor Size (mm^3) Vol.", "setting": "[2]; day 21, 10 mg/kg", "value": 997.7, "unit": "mm^3"}, {"measurement": "Tumor Size (mm^3) Vol.", "setting": "[2]; day 24, 10 mg/kg", "value": 1308.5, "unit": "mm^3"}, {"measurement": "Tumor Size (mm^3) Vol.", "setting": "[2]; day 27, 10 mg/kg", "value": 1732.2, "unit": "mm^3"}, {"measurement": "Maximum weight loss", "setting": "[2]; [4]", "value": 27, "unit": "days"}, {"measurement": "Maximum weight loss %", "setting": "[2]; [4]", "value": 9.4, "unit": "%"}, {"measurement": "TIR % (day 21)", "setting": "[2]; [4]", "value": 23, "unit": "%"}, {"measurement": "Tumor Size (mm^3) Vol.", "setting": "[3]; day 0, 40 mg/kg", "value": 152.1, "unit": "mm^3"}, {"measurement": "Tumor Size (mm^3) Vol.", "setting": "[3]; day 1, 10 mg/kg", "value": 175.1, "unit": "mm^3"}, {"measurement": "Tumor Size (mm^3) Vol.", "setting": "[3]; day 1, 40 mg/kg", "value": 184.6, "unit": "mm^3"}, {"measurement": "Tumor Size (mm^3) Vol.", "setting": "[3]; day 3, 10 mg/kg", "value": 192.0, "unit": "mm^3"}, {"measurement": "Tumor Size (mm^3) Vol.", "setting": "[3]; day 3, 40 mg/kg", "value": 239.3, "unit": "mm^3"}, {"measurement": "Tumor Size (mm^3) Vol.", "setting": "[3]; day 6, 10 mg/kg", "value": 215.0, "unit": "mm^3"}, {"measurement": "Tumor Size (mm^3) Vol.", "setting": "[3]; day 6, 40 mg/kg", "value": 215.0, "unit": "mm^3"}, {"measurement": "Tumor Size (mm^3) Vol.", "setting": "[3]; day 8, 10 mg/kg", "value": 251.2, "unit": "mm^3"}, {"measurement": "Tumor Size (mm^3) Vol.", "setting": "[3]; day 8, 40 mg/kg", "value": 184.7, "unit": "mm^3"}, {"measurement": "Tumor Size (mm^3) Vol.", "setting": "[3]; day 10, 10 mg/kg", "value": 262.1, "unit": "mm^3"}, {"measurement": "Tumor Size (mm^3) Vol.", "setting": "[3]; day 10, 40 mg/kg", "value": 161.7, "unit": "mm^3"}, {"measurement": "Tumor Size (mm^3) Vol.", "setting": "[3]; day 13, 10 mg/kg", "value": 263.5, "unit": "mm^3"}, {"measurement": "Tumor Size (mm^3) Vol.", "setting": "[3]; day 13, 40 mg/kg", "value": 110.2, "unit": "mm^3"}, {"measurement": "Tumor Size (mm^3) Vol.", "setting": "[3]; day 15, 10 mg/kg", "value": 274.1, "unit": "mm^3"}, {"measurement": "Tumor Size (mm^3) Vol.", "setting": "[3]; day 15, 40 mg/kg", "value": 70.9, "unit": "mm^3"}, {"measurement": "Tumor Size (mm^3) Vol.", "setting": "[3]; day 17, 10 mg/kg", "value": 293.7, "unit": "mm^3"}, {"measurement": "Tumor Size (mm^3) Vol.", "setting": "[3]; day 17, 40 mg/kg", "value": 59.1, "unit": "mm^3"}, {"measurement": "Tumor Size (mm^3) Vol.", "setting": "[3]; day 20, 10 mg/kg", "value": 301.4, "unit": "mm^3"}, {"measurement": "Tumor Size (mm^3) Vol.", "setting": "[3]; day 20, 40 mg/kg", "value": 37.8, "unit": "mm^3"}, {"measurement": "Maximum weight loss %", "setting": "[3]; [4]", "value": 4.2, "unit": "%"}, {"measurement": "Maximum weight loss (day)", "setting": "[3]; [4]", "value": "(18) day"}, {"measurement": "TIR % (day 20)", "setting": "[3]; [4]", "value": 61, "unit": "%"}, {"measurement": "Maximum weight loss %", "setting": "[3]; [5]", "value": 3.7, "unit": "%"}, {"measurement": "Maximum weight loss (day)", "setting": "[3]; [5]", "value": "(8) day"}, {"measurement": "TIR % (day 20)", "setting": "[3]; [5]", "value": 95, "unit": "%"}, {"measurement": "IC50", "setting": "A549", "value": "13340 ± 1330", "unit": "µg/mL"}, {"measurement": "IC50", "setting": "AS2", "value": "4200 ± 480", "unit": "µg/mL"}, {"measurement": "IC50", "setting": "H460", "value": "1890 ± 140", "unit": "µg/mL"}, {"measurement": "IC50", "setting": "HT29", "value": 1900, "unit": "µg/mL"}, {"measurement": "IC50", "setting": "Colo 205", "value": "6840 ± 990", "unit": "µg/mL"}, {"measurement": "IC50", "setting": "OVCAR-3", "value": "16750 ± 1430", "unit": "µg/mL"}, {"measurement": "IC50", "setting": "RPMI2650", "value": "1470 ± 260", "unit": "µg/mL"}, {"measurement": "IC50", "setting": "SCC-25", "value": "12350 ± 1160", "unit": "µg/mL"}]}
